Among the data in the RepoRT retention time repository are LC retention time values, retold here.

A short description of the data set: HILIC, HILICON iHILIC-(P) Classic, HILIC, PEEK, 50 × 2.1 mm, 5 µm, 45 °C, 0.12 mL/min, estimated dead time 0.92 min; A: water + 20 mM ammonium carbonate; B: acetonitrile; gradient (min/%B) 0/90 1/90 21/20 21.5/20 26.5/20 27.5/90 35/90. Particulars: stereoisomer not certain.

Each structure is given as a SMILES string.

For the compound `NC(CCC(=O)O)C(=O)O` (stereo not drawn) [Glutamic acid], the LC retention time is 9.69 min.
The figure for `O=C(O)c1cccnc1` [Nicotinic acid] is 1.66 min; for `NC(=O)c1ccc[n+](C2OC(COP(=O)(O)OP(=O)(O)OCC3OC(n4cnc5c(N)ncnc54)C(OP(=O)(O)O)C3O)C(O)C2O)c1` (stereo not drawn) [NADP] it is 13.5 min; for `CC(=O)NC(CC(=O)O)C(=O)O` (stereo not drawn) [N-Acetylaspartic acid] it is 9.96 min.
With `O=P(O)(O)OCC1OC(O)(COP(=O)(O)O)C(O)C1O` (stereo not drawn) [Fructose-1,6-bisphosphate], the LC retention time was 16.3 min.
With `Nc1ncnc2nc[nH]c12` [Adenine], the LC retention time is 3.42 min.
In the case of `NCCCCC(N)C(=O)O` (stereo not drawn) [Lysine], the LC retention time is 18.8 min.
Under `O=C(O)CCCCC1SCC2NC(=O)NC21` (stereo not drawn) [Biotin] stands 3.35 min; under `Cc1ncc(C[n+]2csc(CCO)c2C)c(N)n1` [Thiamine], 13 min.
With `O=c1ccn(C2OC(COP(=O)(O)OP(=O)(O)O)C(O)C2O)c(=O)[nH]1` (stereo not drawn) [UDP], the LC retention time is 12.2 min.
The figure for `O=C(O)CC(=O)O` [Malonic Acid] is 9.39 min.
On to `Nc1nc2c(ncn2C2OC(COP(=O)(O)OP(=O)(O)O)C(O)C2O)c(=O)[nH]1` (stereo not drawn) [GDP], for which the LC retention time was 15.2 min.
Take `NC(=O)C1=CN(C2OC(COP(=O)(O)OP(=O)(O)OCC3OC(n4cnc5c(N)ncnc54)C(OP(=O)(O)O)C3O)C(O)C2O)C=CC1` (stereo not drawn) [NADPH]: the LC retention time was 16.8 min.
Consider `CSCCC(N)C(=O)O` (stereo not drawn) [Methionine], for which the LC retention time is 5.91 min.
In the case of `O=P(O)(O)OCC(O)CO` (stereo not drawn) [Glycerol-3-phosphate], the LC retention time is 10.9 min.
The figure for `NC(Cc1c[nH]c2ccccc12)C(=O)O` (stereo not drawn) [Tryptophan] is 6.18 min.
In the case of `CC(=O)SCCNC(=O)CCNC(=O)C(O)C(C)(C)COP(=O)(O)OP(=O)(O)OCC1OC(n2cnc3c(N)ncnc32)C(O)C1OP(=O)(O)O` (stereo not drawn) [Acetyl-CoA], the LC retention time is 8.69 min.
As for `CC(C)CC(N)C(=O)O` (stereo not drawn) [Leucine], the LC retention time is 5.45 min.
The figure for `O=c1ccn(C2OC(COP(=O)(O)O)C(O)C2O)c(=O)[nH]1` (stereo not drawn) [UMP] is 9.52 min; for `CCC(C)C(N)C(=O)O` (stereo not drawn) [Isoleucine] it is 5.72 min.
Take `CC(C)C(N)C(=O)O` (stereo not drawn) [Valine]: the LC retention time was 6.71 min.
For `O=C1OC(C(O)CO)C(O)=C1O` (stereo not drawn) [Ascorbic Acid], the LC retention time is 9.37 min.
The figure for `Nc1nc2ncc(CNc3ccc(C(=O)NC(CCC(=O)O)C(=O)O)cc3)nc2c(=O)[nH]1` (stereo not drawn) [Folic Acid] is 14.3 min; for `NC(CSSCC(N)C(=O)O)C(=O)O` (stereo not drawn) [Cystine] it is 11.6 min.
The figure for `NC(Cc1ccc(O)cc1)C(=O)O` (stereo not drawn) [Tyrosine] is 6.98 min.
On to `Nc1ccn(C2OC(CO)C(O)C2O)c(=O)n1` (stereo not drawn) [Cytidine], for which the LC retention time is 5.92 min.
Take `NC(CCC(=O)NC(CSSCC(NC(=O)CCC(N)C(=O)O)C(=O)NCC(=O)O)C(=O)NCC(=O)O)C(=O)O` (stereo not drawn) [GSSG]: the LC retention time was 15.3 min.
For `CC(O)C(=O)O` (stereo not drawn) [Lactic Acid], the LC retention time is 2.81 min.
Under `O=C(O)C1(O)CC(O)C(O)C(O)C1` (stereo not drawn) [Quinic Acid] stands 6.43 min; under `NC(=O)CCC(N)C(=O)O` (stereo not drawn) [Glutamine], 8.36 min.
As for `O=c1ccn(C2OC(COP(=O)(O)OP(=O)(O)OP(=O)(O)O)C(O)C2O)c(=O)[nH]1` (stereo not drawn) [UTP], the LC retention time is 14.3 min.
`Nc1ncnc2c1ncn2C1OC(COP(=O)(O)OP(=O)(O)OP(=O)(O)O)C(O)C1O` (stereo not drawn) [ATP]: the LC retention time is 13.6 min.
In the case of `NC(=O)CC(N)C(=O)O` (stereo not drawn) [Asparagine], the LC retention time is 10.8 min.
The figure for `Nc1ncnc2c1ncn2C1OC(COP(=O)(O)O)C(O)C1O` (stereo not drawn) [AMP] is 8.49 min.
Regarding `NC(=O)c1ccc[n+](C2OC(COP(=O)([O-])O)C(O)C2O)c1` (stereo not drawn) [NMN], the LC retention time is 9.43 min.
Regarding `NCCCC(N)C(=O)O` (stereo not drawn) [Ornithine], the LC retention time was 18.1 min.
Under `NC(Cc1ccccc1)C(=O)O` (stereo not drawn) [Phenylalanine] stands 4.97 min; under `C=C(OP(=O)(O)O)C(=O)O` [PEP], 13.7 min; under `Nc1ncnc2c1ncn2C1OC(CO)C(O)C1O` (stereo not drawn) [Adenosine], 3.57 min.
`NC(CCC(=O)NC(CS)C(=O)NCC(=O)O)C(=O)O` (stereo not drawn) [GSH]: the LC retention time is 8.5 min.
On to `NC(=O)c1ccc[n+](C2OC(COP(=O)(O)OP(=O)(O)OCC3OC(n4cnc5c(N)ncnc54)C(O)C3O)C(O)C2O)c1` (stereo not drawn) [NAD], for which the LC retention time is 8.93 min.
The figure for `O=C(O)CCC(=O)O` [Succinic Acid] is 11.8 min; for `Nc1ccn(C2OC(COP(=O)(O)OP(=O)(O)O)C(O)C2O)c(=O)n1` (stereo not drawn) [CDP] it is 13.2 min.
As to `Nc1nc2c(ncn2C2OC(COP(=O)(O)O)C(O)C2O)c(=O)[nH]1` (stereo not drawn) [GMP], the LC retention time is 14.2 min.
Under `O=C(O)CC(C(=O)O)C(O)C(=O)O` (stereo not drawn) [Isocitric acid] stands 15.9 min.
Regarding `CC(O)C(N)C(=O)O` (stereo not drawn) [Threonine], the LC retention time is 8.21 min.
As for `O=C(O)C(CO)OP(=O)(O)O` (stereo not drawn) [Phosphoglyceric acid A], the LC retention time is 13.5 min.
Under `Nc1ncnc2c1ncn2C1OC(COP(=O)(O)OP(=O)(O)O)C(O)C1O` (stereo not drawn) [ADP] stands 12.2 min; under `CC(=O)NC1C(OP(=O)(O)OP(=O)(O)OCC2OC(n3ccc(=O)[nH]c3=O)C(O)C2O)OC(CO)C(O)C1O` (stereo not drawn) [UDP-GlcNAc], 11.7 min.
Turning to `Nc1nc2c(ncn2C2OC(CO)C(O)C2O)c(=O)[nH]1` (stereo not drawn) [Guanosine], the LC retention time was 6.69 min.
As for `NC(CO)C(=O)O` (stereo not drawn) [Serine], the LC retention time was 8.59 min.
On to `O=C(CO)COP(=O)(O)O` [Triose phosphate], for which the LC retention time was 11.3 min.
Regarding `O=C(O)CC(O)C(=O)O` (stereo not drawn) [Malic Acid], the LC retention time is 13.1 min.
As for `Nc1nc2c(ncn2C2OC(COP(=O)(O)OP(=O)(O)OP(=O)(O)O)C(O)C2O)c(=O)[nH]1` (stereo not drawn) [GTP], the LC retention time is 17.1 min.
As for `NC(=O)C1=CN(C2OC(COP(=O)(O)OP(=O)(O)OCC3OC(n4cnc5c(N)ncnc54)C(O)C3O)C(O)C2O)C=CC1` (stereo not drawn) [NADH], the LC retention time is 9.33 min.
Under `O=C(O)C1CCCN1` (stereo not drawn) [Proline] stands 6.81 min; under `O=C(O)CC(O)(CC(=O)O)C(=O)O` [Citric acid], 16.4 min.
For `Nc1ccn(C2OC(COP(=O)(O)O)C(O)C2O)c(=O)n1` (stereo not drawn) [CMP], the LC retention time is 10.9 min.
